Experimental data reported in BindingDB's records for doi:10.1021/jm00114a022 (Smithkline Beecham Pharmaceuticals Research and Development, 1991).
Where a SMILES comes first, the peptide text is derived from it. Bridges are numbered along the chain shown (N, C = ends). [ ]: non-standard residue; d: D form. NMeR = CN[C@@H](CCCNC(=N)N)C(=O)O; hArg = N=C(N)NCCCC[C@H](N)C(=O)O; Cit = NC(=O)NCCC[C@H](N)C(=O)O; Pen = CC(C)(S)[C@H](N)C(=O)O; Sar = CNCC(=O)O

Columns and labels:
[1] = Inhibition of canine platelet-rich plasma agregation induced by ADP
[2] = Inhibition of human washed platelet aggregation

| IC50 [1] [µM] | Ki [2] [µM] | Compound |
| --- | --- | --- |
| 0.37 |  | CC(=O)N[C@@H]1C(=O)N(C)[C@@H](CCCN=C(N)N)C(=O)NCC(=O)N[C@@H](CC(=O)O)C(=O)N[C@H](C(N)=O)C(C)(C)SSC1(C)C |
| > 200 |  | CC(=O)N[C@@H](CCCNC(=N)N)C(=O)N(C)CC(=O)N[C@@H](CC(=O)O)C(=O)N[C@@H](CO)C(N)=O (Ac-R[Sar]DS-NH2) |
| 113 |  | Ac-RRGDF-NH2 |
| > 200 |  | CCNC(=O)[C@H](CO)NC(=O)[C@H](CC(=O)O)NC(=O)CNC(=O)[C@H](CCCNC(=N)N)NC(C)=O (Ac-RGDS-NHEt) |
| 52 |  | CC(=O)N[C@H]1CSSC[C@@H](C(N)=O)NC(=O)[C@H](CC(=O)O)NC(=O)CNC(=O)[C@H](CCCN=C(N)N)NC(=O)CNC1=O |
| 55.5 |  | CC(=O)N[C@@H](CCCNC(=N)N)C(=O)NCC(=O)N[C@@H](CC(=O)O)C(=O)N[C@H](C(N)=O)C(C)C (Ac-RGDV-NH2) |
| 200 |  | CC(=O)N[C@H]1CSSC(C)(C)[C@@H](C(N)=O)NC(=O)[C@H](CC(=O)O)NC(=O)[C@H](C)NC(=O)[C@H](CCCN=C(N)N)NC1=O (Ac-CRAD[Pen]-NH2; disulfide 1-5) |
| > 200 |  | CC(=O)N[C@@H](CCCNC(=N)N)C(=O)N1CCC[C@H]1C(=O)N[C@@H](CC(=O)O)C(=O)N[C@@H](CO)C(N)=O (Ac-RPDS-NH2) |
| > 200 |  | CC(=O)N[C@H]1CSSC(C)(C)[C@@H](C(N)=O)NC(=O)[C@H](CC(N)=O)NC(=O)CNC(=O)[C@H](CCCN=C(N)N)N(C)C1=O (Ac-C[NMeR]GN[Pen]-NH2; disulfide 1-5) |
| > 200 |  | Ac-HHLGGAKQAGDV-OH [1N-[1-[5-amino-1-formyl-(1S)-pentylcarbamoyl]-(1S)-ethylcarbamoylmethylcarbamoylmethyl]-2-[2-(1H-5-imidazolyl)-1-[2-(1H-5-imidazolyl)-1-methylcarboxamido-(1S)-ethylcarboxamido]-(1S)-ethylcarboxamido]-4-methyl-(2S)-pentanamide 2-[1-[1-[1-amino-3-carbamoyl-(1S)-propylcarboxamido]-(1S)-ethylcarboxamidomethylcarboxamido]-2-carboxy-(1S)-ethylcarboxamido]-3-methyl-(2S)-butanoic acid] |
| > 200 |  | CC(=O)N[C@@H](CCCNC(=N)N)C(=O)NCC(=O)N[C@H](CC(=O)N[C@@H](CO)C(N)=O)C(=O)O |
| > 200 |  | CC(=O)N[C@@H](CCCCN)C(=O)NCC(=O)N[C@@H](CC(=O)O)C(=O)N[C@@H](CO)C(N)=O (Ac-KGDS-NH2) |
| > 200 |  | CC(=O)N[C@@H](CCCNC(=N)N)C(=O)NCC(=O)N[C@@H](CCC(=O)O)C(=O)N[C@@H](CO)C(N)=O |
| > 200 |  | CC(=O)N[C@@H](CCCNC(=N)N)C(=O)N[C@@H](C)C(=O)N[C@@H](CC(=O)O)C(=O)N[C@@H](CO)C(N)=O (Ac-RADS-NH2) |
| 7.97 |  | CC(=O)N[C@@H]1C(=O)N[C@@H](CCCN=C(N)N)C(=O)NCC(=O)N[C@@H](CC(=O)O)C(=O)N[C@H](C(N)=O)CSSC1(C)C |
| > 200 |  | CC(=O)N[C@@H](Cc1cnc[nH]1)C(=O)NCC(=O)N[C@@H](CC(=O)O)C(=O)N[C@@H](CO)C(N)=O (Ac-HGDS-NH2) |

| IC50 [1] [µM] | Ki [2] [µM] | Compound |
| --- | --- | --- |
| > 200 |  | CC(=O)N[C@@H](CCCCN)C(=O)NCC(=O)N[C@@H](CCC(=O)O)C(=O)N[C@@H](CO)C(N)=O (Ac-KGES-NH2) |
| 75.9 |  | CC(=O)N[C@@H](CCCNC(=N)N)C(=O)NCC(=O)N[C@@H](CC(=O)O)C(=O)NCCc1ccccc1 |
| 11.4 |  | CC(=O)N[C@H]1CSSC(C)(C)[C@@H](C(N)=O)NC(=O)[C@H](CC(=O)O)NC(=O)CNC(=O)[C@H](CCCN=C(N)N)NC(=O)CNC1=O |
| 102 |  | CC(=O)N[C@@H](CCCNC(=N)N)C(=O)NCC(=O)N[C@@H](CC(=O)O)C(=O)N[C@@H](Cc1ccc(O)cc1)C(N)=O (Ac-RGDY-NH2) |
| > 200 |  | CC(=O)N[C@@H](CCCNC(=N)N)C(=O)NCC(=O)N[C@@H](CC(N)=O)C(=O)N[C@@H](CO)C(N)=O (Ac-RGNS-NH2) |
| > 200 |  | CC(=O)N[C@@H](CCCCN)C(=O)N[C@H]1CSSC(C)(C)[C@@H](C(=O)O)NC(=O)[C@H](CC(=O)O)NC(=O)CNC(=O)[C@H](C)NC1=O (Ac-KCAGD[Pen]-OH; disulfide 2-6) |
| 68.2 |  | CC(=O)N[C@H](CCCCNC(=N)N)C(=O)NCC(=O)N[C@@H](CC(=O)O)C(=O)N[C@@H](CO)C(N)=O |
| 9.6 |  | CC(=O)N[C@@H](Cc1c[nH]cn1)C(=O)N[C@@H](Cc1c[nH]cn1)C(=O)N[C@@H](CC(C)C)C(=O)NCC(=O)NCC(=O)N[C@@H](C)C(=O)N[C@@H](CCCCN)C(=O)N[C@H]1CSSC(C)(C)[C@@H](C(N)=O)NC(=O)[C@H](CC(=O)O)NC(=O)CNC(=O)[C@H](CCCN=C(N)N)NC1=O [1N-[1-formyl-(1S)-ethylcarbamoylmethylcarbamoylmethyl]-2-[2-(1H-5-imidazolyl)-1-[2-(1H-5-imidazolyl)-1-methylcarboxamido-(1S)-ethylcarboxamido]-(1S)-ethylcarboxamido]-4-methyl-(2S)-pentanamide [4-Carbamoyl-16-(2,6-diamino-hexanoylamino)-13-(3-guanidino-propyl)-3,3-dimethyl-6,9,12,15-tetraoxo-1,2-dithia-5,8,11,14-tetraaza-cycloheptadec-7-yl]-acetic acid] |
| 0.355 | 0.062 | CC(=O)N[C@H]1CSSC(C)(C)[C@@H](C(N)=O)NC(=O)[C@H](CC(=O)O)NC(=O)CNC(=O)[C@H](CCCN=C(N)N)N(C)C1=O (Ac-C[NMeR]GD[Pen]-NH2; disulfide 1-5) |
| 16.2 |  | CC(=O)N[C@H]1CSSC[C@@H](C(N)=O)NC(=O)[C@H](CC(=O)O)NC(=O)CNC(=O)[C@H](CCCN=C(N)N)NC1=O |
| 138 |  | CC(=O)N[C@@H](CCCNC(=N)N)C(=O)NCC(=O)N[C@@H](CC(=O)O)C(N)=O |
| 3.85 |  | CC(=O)N[C@H]1CSSC(C)(C)[C@@H](C(N)=O)NC(=O)[C@H](CC(=O)O)NC(=O)CNC(=O)[C@H](CCCCN=C(N)N)NC1=O (Ac-C[hArg]GD[Pen]-NH2; disulfide 1-5) |
| 73.4 |  | CC(=O)N[C@H]1CSSC(C)(C)[C@@H](C(N)=O)NC(=O)[C@H](CC(=O)O)NC(=O)CN(C)C(=O)[C@H](CCCN=C(N)N)NC1=O |
| 32.7 |  | CC(=O)N[C@H]1CSSC[C@@H](C(N)=O)NC(=O)[C@H](CO)NC(=O)[C@H](CC(=O)O)NC(=O)CNC(=O)[C@H](CCCN=C(N)N)NC1=O (Ac-CRGDSC-NH2; disulfide 1-6) |
| 55.3 |  | CC(=O)N[C@H]1CSSC(C)(C)[C@@H](C(N)=O)NC(=O)[C@H](CC(=O)O)NC(=O)CNC(=O)[C@H](CCCCN)NC1=O (Ac-CKGD[Pen]-NH2; disulfide 1-5) |
| > 200 |  | CC(=O)N[C@@H](CCCNC(N)=O)C(=O)NCC(=O)N[C@@H](CC(=O)O)C(=O)N[C@@H](CO)C(N)=O (Ac-[Cit]GDS-NH2) |
